Assay results from ChEMBL document CHEMBL6182870, “Synthesis and biological activity of 1H-pyrrolo[3,2-g]isoquinolines as Haspin kinase inhibitors” (Bioorg Med Chem, 2025).

How the values were obtained:
[1] = Inhibition of recombinant human CDK9/Cyclin T extracted from baculovirus infected Sf9 cells using YSPTSPSYSPTSPSYSPTSPSKKKK as substrate assessed as enzyme residual activity at 1 uM incubated for 30 mins in presence of ATP by ADP-Glo kinase assay relative to control
[2] = biological target: Dual specificity protein kinase CLK1 (Mus musculus, UniProt P22518); assay: Inhibition of recombinant mouse CLK1 extracted from bacteria using GRSRSRSRSRSR as substrate incubated for 30 mins in presence of ATP by ADP-Glo kinase assay
U2OS = assay: Antiproliferative activity against human U2OS cells assessed as inhibition of cell viability incubated for 48 hrs by MTS assay; assay type: functional, cell-based
[3] = biological target: Dual specificity tyrosine-phosphorylation-regulated kinase 1A (Rattus norvegicus, UniProt Q63470); assay: Inhibition of recombinant rat DYRK1A kinase domain (1 to 499 residues) extracted from bacteria using KKISGRLSPIMTEQ as substrate incubated for 30 mins in presence of ATP by ADP-Glo kinase assay
[4] = biological target: Glycogen synthase kinase-3 beta (Homo sapiens) (UniProt P49841); assay: Inhibition of recombinant human GSK3beta extracted from baculovirus infected Sf9 cells using GS-1 (YRRAAVPPSPSLSRHSSPHQSpEDEEE) peptide as substrate assessed as enzyme residual activity at 1 uM incubated for 30 mins in presence of ATP by ADP-Glo kinase assay relative to control
[5] = biological target: Dual specificity tyrosine-phosphorylation-regulated kinase 1A (Rattus norvegicus) (UniProt Q63470); assay: Inhibition of recombinant rat DYRK1A kinase domain (1 to 499 residues) extracted from bacteria using KKISGRLSPIMTEQ as substrate assessed as enzyme residual activity at 10 uM incubated for 30 mins in presence of ATP by ADP-Glo kinase assay relative to control
[6] = biological target: Dual specificity protein kinase CLK1 (Mus musculus) (UniProt P22518); assay: Inhibition of recombinant mouse CLK1 extracted from bacteria using GRSRSRSRSRSR as substrate assessed as enzyme residual activity at 10 uM incubated for 30 mins in presence of ATP by ADP-Glo kinase assay relative to control
[7] = biological target: T1, Serine/threonine-protein kinase haspin (Homo sapiens, UniProt Q8TF76); assay: Inhibition of recombinant human haspin kinase domain (470 to 798 residues) extracted from bacteria using histone H3 (1 to 21) peptide as substrate incubated for 30 mins in presence of ATP by ADP-Glo kinase assay
T1 sequence (Q8TF76 whole entry): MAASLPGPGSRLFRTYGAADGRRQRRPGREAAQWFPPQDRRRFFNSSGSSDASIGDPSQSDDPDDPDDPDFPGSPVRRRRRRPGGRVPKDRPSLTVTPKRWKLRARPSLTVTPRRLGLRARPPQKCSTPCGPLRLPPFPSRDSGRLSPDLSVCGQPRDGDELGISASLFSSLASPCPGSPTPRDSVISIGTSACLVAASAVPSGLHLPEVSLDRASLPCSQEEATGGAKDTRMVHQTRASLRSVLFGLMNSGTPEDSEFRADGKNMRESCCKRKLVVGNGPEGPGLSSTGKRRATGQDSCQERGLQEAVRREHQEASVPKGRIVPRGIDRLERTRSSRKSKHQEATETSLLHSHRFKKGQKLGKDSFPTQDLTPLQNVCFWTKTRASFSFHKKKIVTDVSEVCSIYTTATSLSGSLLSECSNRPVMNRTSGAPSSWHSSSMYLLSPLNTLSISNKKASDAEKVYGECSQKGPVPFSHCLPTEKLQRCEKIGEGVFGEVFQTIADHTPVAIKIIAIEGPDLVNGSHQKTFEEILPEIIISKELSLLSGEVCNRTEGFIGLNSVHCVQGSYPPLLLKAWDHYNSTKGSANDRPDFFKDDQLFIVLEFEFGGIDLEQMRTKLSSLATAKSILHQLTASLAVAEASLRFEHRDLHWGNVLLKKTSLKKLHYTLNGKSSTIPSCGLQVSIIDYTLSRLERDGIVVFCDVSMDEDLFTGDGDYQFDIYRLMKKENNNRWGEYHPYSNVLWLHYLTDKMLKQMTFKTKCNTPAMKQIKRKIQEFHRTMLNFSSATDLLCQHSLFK

[8] = biological target: T2, Cyclin-dependent kinase 5/CDK5 activator 1 (Homo sapiens) (UniProt Q00535+Q15078); assay: Inhibition of recombinant human CDK5/p25 extracted from bacteria using histone H1 as substrate assessed as enzyme residual activity at 1 uM incubated for 30 mins in presence of ATP by ADP-Glo kinase assay relative to control; assay type: protein-complex assay
[9] = biological target: T3, Serine/threonine-protein kinase haspin (Homo sapiens) (UniProt Q8TF76); assay: Inhibition of haspin in human U2OS cells assessed as at 5 uM incubated for 16 hrs by DAPI staining based immunofluorescence analysis relative to control; assay type: cell-based
T3 sequence (whole entry): T1 sequence (Q8TF76 whole entry)

HCT-116 = assay: Antiproliferative activity against human HCT-116 cells assessed as inhibition of cell viability incubated for 48 hrs by MTS assay; assay type: functional, cell-based; conditions: HCT-116, 48 h
[10] = biological target: Glycogen synthase kinase-3 beta (Homo sapiens) (UniProt P49841); assay: Inhibition of recombinant human GSK3beta extracted from baculovirus infected Sf9 cells using GS-1 (YRRAAVPPSPSLSRHSSPHQSpEDEEE) peptide as substrate assessed as enzyme residual activity at 10 uM incubated for 30 mins in presence of ATP by ADP-Glo kinase assay relative to control
[11] = biological target: T4, Serine/threonine-protein kinase pim-1 (Homo sapiens, UniProt P11309); assay: Inhibition of recombinant human PIM-1 extracted from bacteria using histone H1 as substrate incubated for 30 mins in presence of ATP by ADP-Glo kinase assay
Target sequence in this assay (P11309 whole entry): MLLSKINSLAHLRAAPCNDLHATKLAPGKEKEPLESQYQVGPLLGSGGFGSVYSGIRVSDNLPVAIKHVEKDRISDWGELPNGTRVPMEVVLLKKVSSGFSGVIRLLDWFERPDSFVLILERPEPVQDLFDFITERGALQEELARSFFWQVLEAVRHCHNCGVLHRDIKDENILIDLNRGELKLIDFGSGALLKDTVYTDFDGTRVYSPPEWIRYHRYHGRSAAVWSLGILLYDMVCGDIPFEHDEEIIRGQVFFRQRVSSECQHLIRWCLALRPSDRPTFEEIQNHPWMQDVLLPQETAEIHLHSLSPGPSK

[12] = Cytotoxicity against human hTERT-RPE1 cells assessed as effect on cell viability incubated for 48 hrs by MTS assay; assay type: toxicity, cell-based, TERT-RPE1
HBL-100 = assay: Antiproliferative activity against human HBL-100 cells assessed as inhibition of cell viability incubated for 48 hrs by MTS assay; assay type: functional, cell-based; conditions: HBL-100, 48 h
SH-SY5Y = assay: Antiproliferative activity against human SH-SY5Y cells assessed as inhibition of cell viability incubated for 48 hrs by MTS assay; assay type: functional, cell-based
[13] = biological target: T3, Serine/threonine-protein kinase haspin (Homo sapiens); assay: Inhibition of recombinant human haspin kinase domain (470 to 798 residues) extracted from bacteria using histone H3 (1 to 21) peptide as substrate assessed as residual activity at 10 uM incubated for 30 mins in presence of ATP by ADP-Glo kinase assay relative to control
[14] = biological target: Casein kinase I isoform epsilon (Homo sapiens) (UniProt P49674); assay: Inhibition of recombinant human CK1epsilon extracted from baculovirus infected Sf9 cells using RRKHAAIGSpAYSITA peptide as substrate assessed as enzyme residual activity at 1 uM incubated for 30 mins in presence of ATP by ADP-Glo kinase assay relative to control
[15] = Inhibition of recombinant human CDK9/Cyclin T extracted from baculovirus infected Sf9 cells using YSPTSPSYSPTSPSYSPTSPSKKKK as substrate assessed as enzyme residual activity at 10 uM incubated for 30 mins in presence of ATP by ADP-Glo kinase assay relative to control
[16] = biological target: T3, Serine/threonine-protein kinase haspin (Homo sapiens); assay: Inhibition of recombinant human haspin kinase domain (470 to 798 residues) extracted from bacteria using histone H3 (1 to 21) peptide as substrate assessed as residual activity at 1 uM incubated for 30 mins in presence of ATP by ADP-Glo kinase assay relative to control
[17] = biological target: Dual specificity tyrosine-phosphorylation-regulated kinase 1A (Rattus norvegicus) (UniProt Q63470); assay: Inhibition of recombinant rat DYRK1A kinase domain (1 to 499 residues) extracted from bacteria using KKISGRLSPIMTEQ as substrate assessed as enzyme residual activity at 1 uM incubated for 30 mins in presence of ATP by ADP-Glo kinase assay relative to control
[18] = biological target: T2, Cyclin-dependent kinase 5/CDK5 activator 1 (Homo sapiens); assay: Inhibition of recombinant human CDK5/p25 extracted from bacteria using histone H1 as substrate assessed as enzyme residual activity at 10 uM incubated for 30 mins in presence of ATP by ADP-Glo kinase assay relative to control; assay type: protein-complex assay
[19] = biological target: Casein kinase I isoform epsilon (Homo sapiens) (UniProt P49674); assay: Inhibition of recombinant human CK1epsilon extracted from baculovirus infected Sf9 cells using RRKHAAIGSpAYSITA peptide as substrate assessed as enzyme residual activity at 10 uM incubated for 30 mins in presence of ATP by ADP-Glo kinase assay relative to control
[20] = biological target: Dual specificity protein kinase CLK1 (Mus musculus) (UniProt P22518); assay: Inhibition of recombinant mouse CLK1 extracted from bacteria using GRSRSRSRSRSR as substrate assessed as enzyme residual activity at 1 uM incubated for 30 mins in presence of ATP by ADP-Glo kinase assay relative to control
[21] = biological target: T4, Serine/threonine-protein kinase pim-1; assay: Inhibition of recombinant human PIM-1 extracted from bacteria using histone H1 as substrate assessed as enzyme residual activity at 10 uM incubated for 30 mins in presence of ATP by ADP-Glo kinase assay relative to control
Target sequence in this assay (P11309 whole entry, looked up): as the sequence (P11309 whole entry) above

[22] = biological target: T4, Serine/threonine-protein kinase pim-1; assay: Inhibition of recombinant human PIM-1 extracted from bacteria using histone H1 as substrate assessed as enzyme residual activity at 1 uM incubated for 30 mins in presence of ATP by ADP-Glo kinase assay relative to control
Target sequence in this assay (P11309 whole entry, looked up): as the sequence (P11309 whole entry) above

[23] = Selectivity index, ratio of IC50 for inhibition of recombinant rat DYRK1A kinase domain (1to 499 residues) extracted from bacteria to IC50 for inhibition of human haspin kinase domain (470 to 798 residues) extracted from bacteria using histone H3 (1 to 21) peptide as substrate
[24] = biological target: T3, Serine/threonine-protein kinase haspin (Homo sapiens); assay: Inhibition of haspin in human U2OS cells assessed as at 1 uM incubated for 16 hrs by DAPI staining based immunofluorescence analysis relative to control; assay type: cell-based

Sequence of Casein kinase I isoform epsilon (Homo sapiens) (P49674 whole entry, looked up, canonical isoform): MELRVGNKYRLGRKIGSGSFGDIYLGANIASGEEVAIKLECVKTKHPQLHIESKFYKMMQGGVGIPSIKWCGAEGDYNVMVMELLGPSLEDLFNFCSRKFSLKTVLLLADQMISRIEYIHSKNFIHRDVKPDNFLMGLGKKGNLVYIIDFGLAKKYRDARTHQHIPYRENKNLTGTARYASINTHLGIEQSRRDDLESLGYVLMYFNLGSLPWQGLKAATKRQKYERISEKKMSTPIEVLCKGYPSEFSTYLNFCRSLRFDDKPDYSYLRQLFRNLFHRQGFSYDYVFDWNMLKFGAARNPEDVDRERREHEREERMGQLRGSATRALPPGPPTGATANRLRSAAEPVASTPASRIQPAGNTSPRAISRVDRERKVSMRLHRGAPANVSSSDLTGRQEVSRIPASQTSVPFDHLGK
T2 sequence (Q00535 whole entry): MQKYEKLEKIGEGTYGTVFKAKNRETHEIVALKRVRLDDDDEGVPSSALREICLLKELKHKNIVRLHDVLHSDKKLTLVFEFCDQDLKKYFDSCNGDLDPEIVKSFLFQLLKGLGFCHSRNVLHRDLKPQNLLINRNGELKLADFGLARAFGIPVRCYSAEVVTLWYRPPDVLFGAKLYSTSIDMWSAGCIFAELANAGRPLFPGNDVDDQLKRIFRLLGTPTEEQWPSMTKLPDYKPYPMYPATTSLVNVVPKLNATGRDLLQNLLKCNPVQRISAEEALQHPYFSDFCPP
T2 sequence (Q15078 99-307 partner limits assumed): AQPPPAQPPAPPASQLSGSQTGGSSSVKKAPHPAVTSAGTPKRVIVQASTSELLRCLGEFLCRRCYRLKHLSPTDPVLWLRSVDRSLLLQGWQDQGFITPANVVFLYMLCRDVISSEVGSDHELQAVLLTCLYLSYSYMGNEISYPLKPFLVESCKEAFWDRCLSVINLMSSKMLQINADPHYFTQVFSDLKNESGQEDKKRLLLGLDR
Sequence of Glycogen synthase kinase-3 beta (Homo sapiens) (P49841 whole entry, looked up, the tested form may be a part): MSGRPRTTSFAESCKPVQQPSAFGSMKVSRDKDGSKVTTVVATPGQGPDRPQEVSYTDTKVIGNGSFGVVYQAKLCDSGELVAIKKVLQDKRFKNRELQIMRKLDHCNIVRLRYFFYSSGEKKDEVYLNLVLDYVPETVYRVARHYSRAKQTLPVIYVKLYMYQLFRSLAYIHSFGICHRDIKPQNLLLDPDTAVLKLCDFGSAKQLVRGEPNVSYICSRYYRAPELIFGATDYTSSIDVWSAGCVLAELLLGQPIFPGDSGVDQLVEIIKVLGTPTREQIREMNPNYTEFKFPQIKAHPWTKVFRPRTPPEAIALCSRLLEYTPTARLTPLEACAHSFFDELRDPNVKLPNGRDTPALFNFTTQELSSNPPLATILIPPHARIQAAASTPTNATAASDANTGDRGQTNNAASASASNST
Sequence of Dual specificity protein kinase CLK1 (Mus musculus) (P22518 whole entry, looked up, the tested form may be a part): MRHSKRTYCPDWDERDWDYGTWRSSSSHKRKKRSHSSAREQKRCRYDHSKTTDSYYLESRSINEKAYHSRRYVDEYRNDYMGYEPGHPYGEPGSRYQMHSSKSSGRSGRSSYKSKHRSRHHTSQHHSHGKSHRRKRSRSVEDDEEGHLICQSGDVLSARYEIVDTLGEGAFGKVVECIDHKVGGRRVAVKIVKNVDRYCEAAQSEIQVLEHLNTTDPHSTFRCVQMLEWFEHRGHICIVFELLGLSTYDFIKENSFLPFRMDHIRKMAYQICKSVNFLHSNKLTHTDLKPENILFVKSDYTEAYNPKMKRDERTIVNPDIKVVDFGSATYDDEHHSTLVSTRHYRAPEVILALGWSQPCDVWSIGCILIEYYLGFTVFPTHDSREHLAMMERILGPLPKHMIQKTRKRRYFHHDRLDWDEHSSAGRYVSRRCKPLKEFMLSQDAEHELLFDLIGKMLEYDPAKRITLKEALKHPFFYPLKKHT
Sequence of Dual specificity protein kinase CLK1 (P22518 whole entry): as the sequence (P22518 whole entry, looked up, the tested form may be a part) above

| Compound | Activity [1] [%] | IC50 [2] [µM] | EC50 (U2OS) [µM] | IC50 [3] [µM] | Activity [4] [%] | Activity [5] [%] | Activity [6] [%] | IC50 [7] [µM] | Activity [8] [%] | Activity [10] [%] | Activity [13] [%] | Activity [14] [%] | Activity [15] [%] | Activity [16] [%] | Activity [17] [%] | Activity [18] [%] | Activity [19] [%] | Activity [20] [%] | Activity [21] [%] | Activity [22] [%] | other results |
| --- | --- | --- | --- | --- | --- | --- | --- | --- | --- | --- | --- | --- | --- | --- | --- | --- | --- | --- | --- | --- | --- |
| Cn1cc(-c2ccncc2)c2cc3ccncc3cc21 | 97 | 0.546 | 3.2 | 0.339 | 74 | 9 | 13 | 0.0236 | 63 | 92 | 5 | 72 | 59 | 7 | 23 | 44 | 42 | 35 | 18 | 37 | inhibition [9]: 37%; EC50 (HCT-116): 2.1 µM; IC50 [11]: 1.27 µM; EC50 at 48 h [12]: 2.3 µM; EC50 (HBL-100): 6.6 µM; EC50 (SH-SY5Y): 6.4 µM |
| Cn1cc(-c2cccnc2)c2cc3ccncc3cc21 | 81 | 0.177 | 11.5 | 0.498 | 69 | 12 | 7 | 0.0317 | 79 | 34 | 3 | 94 | 39 | 9 | 33 | 75 | 65 | 18 | 54 | 45 | inhibition [9]: No effect; EC50 (HCT-116): 15 µM; IC50 [11]: 0.876 µM; EC50 at 48 h [12]: 17.8 µM; EC50 (HBL-100): 26.9 µM; EC50 (SH-SY5Y): 17.7 µM |
| c1ccc(-c2c[nH]c3cc4cnccc4cc23)nc1 | 90 | 0.387 |  | 0.159 | 84 | 11 | 10 | 0.0844 | 72 | 72 | 3 | 97 | 49 | 8 | 27 | 35 | 90 | 27 | 19 | 63 | Ratio IC50 [23]: 1.9 |
| CCCNc1ccc2ncc(-c3ccc4[nH]ncc4c3)n2n1 |  |  |  |  |  |  |  |  |  |  |  |  |  |  |  |  |  |  |  |  | inhibition [24]: 100% |
| c1cncc(-c2c[nH]c3cc4cnccc4cc23)c1 | 74 | 0.237 | 26.7 | 0.602 | 75 | 6 | 8 | 0.0306 | 86 | 37 | 2 | 91 | 39 | 7 | 36 | 57 | 70 | 19 | 22 | 37 | inhibition [9]: 26%; EC50 (HCT-116): 13 µM; IC50 [11]: 0.114 µM; EC50 at 48 h [12]: 18.2 µM; EC50 (HBL-100): > 50 µM; EC50 (SH-SY5Y): 41.2 µM |
